According to US10294229B2, “Heteroaryl substituted aminopyridine compounds” (BRISTOL-MYERS SQUIBB COMPANY, priority 2015, dated 2019):

Molecular target: IRAK4 (Homo sapiens (Human), UniProt Q9NWZ3)
Experiment: IRAK4 Inhibition Assay
Type: biochemical
Conditions: ATP 500 μM; IRAK4 0.6 nM
Method in brief: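 Readout: electrophoretic (LabChip) separation of fluorescent peptide substrate from phosphorylated product after EDTA quench. Reactions ran 60 min at room temperature with 0.6 nM IRAK4, 1.5 μM peptide and 500 μM ATP; inhibition referenced to no-enzyme (100%) and vehicle (0%) controls.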

IRAK4, sequence (Q9NWZ3 whole entry, species assumed): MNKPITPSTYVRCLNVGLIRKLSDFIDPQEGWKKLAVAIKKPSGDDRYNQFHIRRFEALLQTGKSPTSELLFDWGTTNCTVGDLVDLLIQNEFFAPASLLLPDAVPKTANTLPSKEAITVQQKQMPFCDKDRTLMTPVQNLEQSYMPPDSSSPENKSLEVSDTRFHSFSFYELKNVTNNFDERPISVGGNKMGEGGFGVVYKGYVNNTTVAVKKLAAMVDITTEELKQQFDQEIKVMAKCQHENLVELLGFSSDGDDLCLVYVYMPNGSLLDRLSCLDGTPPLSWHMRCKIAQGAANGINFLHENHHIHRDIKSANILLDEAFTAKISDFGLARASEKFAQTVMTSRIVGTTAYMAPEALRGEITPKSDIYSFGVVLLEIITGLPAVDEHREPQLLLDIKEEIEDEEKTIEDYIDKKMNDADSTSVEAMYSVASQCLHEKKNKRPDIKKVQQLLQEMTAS

Row | IC50 [µM] | Compound
1 | 0.026 | CC(C)Nc1cc(-n2ncc3cc(C#N)cnc32)ncc1-c1cn(-c2ccccc2C#N)nn1 [Example 173, 1-(5-(1-(2-cyanophenyl)-1H-1,2,3-triazol-4-yl)-4-(isopropylamino)pyridin-2-yl)-1H-pyrazolo [3,4-b]pyridine-5-carbonitrile]
2 | 0.022 | CC(C)Nc1cc(-n2ncc3cc(C#N)cnc32)ncc1-n1cc(C2CC2)nn1 [Example 300, 1-(5-(4-cyclopropyl-1H-1,2,3-triazol-1-yl)-4-(isopropylamino)pyridin-2-yl)-1H-pyrazolo[3,4-b]pyridine-5-carbonitrile]
3 | 0.022 | CC(=O)N1CC(n2cnc(-c3cnc(-n4ncc5cc(C#N)cnc54)cc3NC(C)C)c2)C1 [Example 223, 1-(5-(1-(1-acetylazetidin-3-yl)-1H-imidazol-4-yl)-4-(isopropylamino)pyridin-2-yl)-1H-pyrazolo[3,4-b]pyridine-5-carbonitrile]
4 | 0.108 | CC(C)Nc1cc(-n2ncc3cc(C#N)cnc32)ncc1-n1cc(CN)nn1 [Example 310, 1-(5-(4-(aminomethyl)-1H-1,2,3-triazol-1-yl)-4-(isopropylamino)pyridin-2-yl)-1H-pyrazolo[3,4-b]pyridine-5-carbonitrile]
5 | 0.003 | CCN[C@H]1CC[C@H](c2cn(-c3cnc(-n4ncc5cc(C#N)cnc54)cc3NC(C)C)nn2)CC1 [Example 356, 1-(5-(4-((1s,4s)-4-(ethylamino)cyclohexyl)-1H-1,2,3-triazol-1-yl)-4-(isopropylamino)pyridin-2-yl)-1H-pyrazolo[3,4-b]pyridine-5-carbonitrile]
6 | 0.001 | CC(C)Nc1cc(-n2ncc3cc(C#N)cnc32)ncc1-c1cn(C2CCOCC2)nn1 [Example 19, 1-(4-(isopropylamino)-5-(1-(tetrahydro-2H-pyran-4-yl)-1H-1,2,3-triazol-4-yl)pyridin-2-yl)-1H-pyrazolo[3,4-b]pyridine-5-carbonitrile]

More lines, now with the values behind:

Row | Compound | IC50 [µM]
7 | CC(C)Nc1cc(-n2ncc3cc(C#N)cnc32)ncc1-c1cn(CC(O)Cc2ccccc2)nn1 (single isomer, unassigned) [Example 76, 1-(5-(1-(2-hydroxy-3-phenylpropyl)-1H-1,2,3-triazol-4-yl)-4-(isopropylamino)pyridin-2-yl)-1H-pyrazolo [3,4-b]pyridine-5-carbonitrile] | 0.007
8 | COC(=O)c1ccccc1-n1cc(-c2cnc(-n3ncc4cc(C#N)cnc43)cc2NC(C)C)nn1 [Example 175, methyl 2-(4-(6-(5-cyano-1H-pyrazolo[3,4-b]pyridin-1-yl)-4-(isopropylamino)pyridin-3-yl)-1H-1,2,3-triazol-1-yl)benzoate] | 0.035
9 | CC(F)Cc1cn(-c2cnc(-n3cnc4cnc(N)nc43)cc2NC(C)C)nn1 (single isomer, unassigned) [Example 293, 9-(5-(4-(2-fluoropropyl)-1H-1,2,3-triazol-1-yl)-4-(isopropylamino)pyridin-2-yl)-9H-purin-2-amine] | 0.028
10 | COC(=O)N[C@H]1CC[C@H](c2cc(-c3cnc(-n4ncc5cc(C#N)cnc54)cc3NC(C)C)on2)CC1 [Example 411, methyl ((1s,4s)-4-(5-(6-(5-cyano-1H-pyrazolo[3,4-b]pyridin-1-yl)-4-(isopropylamino)pyridin-3-yl)isoxazol-3-yl)cyclohexyl)carbamate] | 0.003
11 | CC(C)Nc1cc(-n2ncc3cc(C#N)cnc32)ncc1-c1cn([C@@H]2O[C@H](CO)[C@H](O)[C@H](O)[C@H]2O)nn1 [Example 105, 1-(4-(isopropylamino)-5-(1-((2R,3R,4S,5R,6R)-3,4,5-trihydroxy-6-(hydroxymethyl)tetrahydro-2H-pyran-2-yl)-1H-1,2,3-triazol-4-yl)pyridin-2-yl)-1H-pyrazolo[3,4-b]pyridine-5-carbonitrile] | 0.055
12 | CC(C)Nc1cc(-n2ncc3cc(C#N)cnc32)ncc1-c1cn(Cc2ccccn2)cn1 [Example 239, 1-(4-(isopropylamino)-5-(1-(pyridin-2-ylmethyl)-1H-imidazol-4-yl)pyridin-2-yl)-1H-pyrazolo[3,4-b]pyridine-5-carbonitrile] | 0.034
